Measurements published in patent US10828349B2, “Treatment of microbial infections” (NATIONAL UNIVERSITY OF IRELAND, GALWAY, priority 2011, dated 2020).

Tests used:
[1] = test system: Staphycoccus epidermidis central venous catheter-related biofilm; settings: cited from earlier work; for duration of treatment after which biofilm cells were still recoverable: 10 g/L antibiotic; for result relative to gentamycin and vancomycin: biofilm lock therapy model
R479/2012 9028 = experiment: antibiotic susceptibility of strain; type: cell-based, P. aeruginosa; parameters: key: ‘S’ denotes sensitive; ‘R’ denotes resistant or increased tolerance; settings: R479/2012 9028, cystic fibrosis sputum isolate
Description: (§1) The susceptibility of a number of P. aeruginosa strains to the KI-Dose-150 composition was tested using the method described in Example 1. […] The relative susceptibilities are described in Table 4.

R480/2012 9029 = experiment: antibiotic susceptibility of strain; type: cell-based, P. aeruginosa; parameters: key: ‘S’ denotes sensitive; ‘R’ denotes resistant or increased tolerance; settings: R480/2012 9029, cystic fibrosis sputum isolate
Description: as §1

R550/2012 9026 = experiment: antibiotic susceptibility of strain; type: cell-based, P. aeruginosa; parameters: key: ‘S’ denotes sensitive; ‘R’ denotes resistant or increased tolerance; settings: R550/2012 9026, cystic fibrosis sputum isolate
Description: as §1

bacterial cells [2] = experiment: lower limits of components of the enzymatic system, LB broth; type: cell-based; settings: for level of required substrate: glucose and glucose oxidase levels sufficient
Description: The lower limits of each of the components in an enzymatic system, required to produce inhibitory biocidal concentrations of the antimicrobial agents, were determined (for example Table 1 and Table 5). To establish these lower limits for each component, minimum inhibitory concentrations for each were calculated using doubling dilutions on a 96-well plate, in a manner similar to that described in Example 1, wherein the concentration of the component of choice is lowered until no effect on growth is noted. […] At levels below this, there was insufficient reactive oxygen species produced to result in effective bactericidal activity. The level of LP required for a reaction to produce the reactive oxygen species at the required concentrations was determined at 0.15 unit activity/ml (1 mM KI present). […] This embodiment of the invention suitable for the therapeutic treatment of mastitis also included beta-galactosidase to convert the lactose present in milk to glucose.

E. coli [3] = settings: constant H2O2 (glucose oxidase) and LP; substrate 40 mg/ml doubly diluted; Mueller Hinton broth
Description: (§2) Secondly, an assay where the concentration of substrates was maintained constant, and the H2O2 levels were varied was employed.
This was aliquoted (150 μl) to rows of a 96-well plate. […] The samples were doubly diluted as far as well 11, leaving well 12 as a control. The plate was incubated overnight at 37° C., and the optical density measured throughout.

E. coli [4] = settings: constant substrate and LP; glucose/glucose oxidase doubly diluted; Mueller Hinton broth
Description: as §2
This was aliquoted (150 μl) to a 96 well plate.

P. aeruginosa D12 = experiment: antibiotic susceptibility of strain; type: cell-based; parameters: key: ‘S’ denotes sensitive; ‘R’ denotes resistant or increased tolerance
Description: as §1

E. coli [5] = experiment: milk inoculated with E. coli, enzymatic system with Beta-galactosidase; type: cell-based; settings: component of the four-component system in milk inoculated with E. coli
[6] = effect of milk pasteurisation heating on the enzymatic components; type: physicochemical; settings: held 15-600 seconds; activity read by E. coli total viable counts in milk after 24 hrs at 37° C.
Description: An attempt was made to determine the effects of the milk pasteurisation process on the enzymatic components, which can be used to produce the reactive oxygen species of the composition of the present invention. Working concentrations of the enzymes were heated in 50 μl volumes to 72° C. and held for 15, 30, 60, 300 or 600 seconds.
Appropriate concentrations of these aliquots were then transferred to milk containing the necessary components of the system and ˜10^8 cells/ml E. coli. Total viable counts were performed after 24 hrs incubation at 37° C. This allowed the determination of whether the enzymes were still active after heating.

E. coli ATCC 25922 = experiment: hydrogen peroxide source growth inhibition assay with or without LP and KI; type: cell-based
Description: Aliquots (20 ml) of nutrient broth were inoculated with 10^8 cells of E. coli ATCC 25922, and 150 μl of the inoculated broth were added to wells in a 96 well growth plate. This was repeated with the inoculated broth being further supplemented with LP (37.5 μl of a 4 mg/ml solution) and KI (75 μl of a 40 mg/ml solution) to the medium.
Sources of hydrogen peroxide were added (150 μl) to well 1 and doubly diluted to well 11, but not to well 12, which acted as a control.

R468/2012 9027 = experiment: antibiotic susceptibility of strain; type: cell-based, P. aeruginosa; parameters: key: ‘S’ denotes sensitive; ‘R’ denotes resistant or increased tolerance; settings: R468/2012 9027, cystic fibrosis sputum isolate
Description: as §1

E. coli [7] = settings: catalase treated
Description: The antimicrobial properties of these compositions were tested using a doubling dilution 96-well plate growth assay-based method. An aliquot of the composition was added to 150 μl growth medium (with 1-2% glucose present) containing 10^7-8 bacterial cells, and brought to a final volume of 300 μl. The composition concentration was doubly diluted by the removal of 150 μl of the mixture and transfer to the next well containing 150 μl of identical growth medium, lacking the ROS producing components. The optical density of the medium was measured for 24 hours at 595 nm. […] Controls included wells to which none of the composition was supplemented, or wherein, one of the components was removed from the composition.
A further example of a pre-activated system was employed as follows: solutions (4 ml volumes) containing 0.85 M H2O2 plus none or 2.5 M NaCl/5 μl chloroperoxidase (˜10,000 Units/ml) were allowed incubate. The solutions were then split and either catalase treated (50 μl of a 4 mg/ml, >1,000 units/mg) or were not catalase treated. The relative antimicrobial properties of the solutions were then tested using the protocol as described in Example 1 using E. coli supplemented broth.

bacterial cells [8] = experiment: potency in broth growth medium containing catalase; type: cell-based; settings: hydrogen peroxide 0.85 M only
Description: This embodiment is referred to as ‘KI-Dose-150’.
The potency of the doses was not reversed. A 1:1024 dilution of the doses was inhibitory in the absence of catalase, and a 1:512 dilution of the doses was inhibitory in the presence of catalase.
As a comparison, the test was performed using only hydrogen peroxide (0.85 M), both in the presence and absence of catalase.

[9] = nutrient broth supplemented with KI and LP

In the case of Gentamicin, the “duration of treatment after which biofilm cells were still recoverable” value [1] is given as 10 days, the “susceptibility of the strain to the antibiotic” value (shortened to “susceptibility of the strain”) (R479/2012 9028) is given as “R” and the “susceptibility of the strain” value (R480/2012 9029) is given as “R”. The “susceptibility of the strain” value (R550/2012 9026) was “R”.

For `N#C[S-].[K+]` [Thiocyanate, potassium thiocyanate], the “level of required substrate” value (bacterial cells [2]) was “approximately 0.5 mM”, the “last doubling dilution with substrate level sufficient for complete inhibition” value (E. coli [3]) was 9 and the “number of dilutions of the H2O2 producing sample with inhibition” value (E. coli [4]) was “two”.

In the case of `[I-].[K+]` [Iodide, potassium iodide], the “level of required substrate” value (bacterial cells [2]) is reported as “approximately 0.5 mM”, the “last doubling dilution with substrate level sufficient for complete inhibition” value (E. coli [3]) is reported as 8 and the “number of dilutions of the H2O2 producing sample with inhibition” value (E. coli [4]) is reported as “six”.

In the case of `CC(=O)NC[C@H]1CN(c2ccc(N3CCN(C(=O)CO)CC3)c(F)c2)C(=O)O1` [eperezolid], the “result relative to gentamycin and vancomycin” value [1] is listed as “better results”.

In the case of `O=C(O)c1cn(C2CC2)c2cc(N3CCNCC3)c(F)cc2c1=O` [Ciprofloxacin], the “susceptibility of the strain” value (P. aeruginosa D12) is reported as “R”, the “susceptibility of the strain” value (R480/2012 9029) is reported as “R” and the “susceptibility of the strain” value (R550/2012 9026) is reported as “R”.

In the case of lactoperoxidase, the “concentration sufficient to observe antibacterial activity” value (E. coli [5]) is reported as ≥ 12 mg/L, the “level of LP required” value (bacterial cells [2]; 1 mM KI present) is reported as 0.15 unit activity/ml and the “enzyme activity after heating to 72° C.” value [6] is reported as “demonstrated activity after 300 seconds heating”.

In the case of `CC(=O)NC[C@H]1CN(c2ccc(N3CCOCC3)c(F)c2)C(=O)O1` [linezolid], the “result relative to gentamycin and vancomycin” value [1] is given as “better results”.

In the case of `CN[C@H](CC(C)C)C(=O)N[C@H]1C(=O)N[C@@H](CC(N)=O)C(=O)N[C@H]2C(=O)N[C@H]3C(=O)N[C@H](C(=O)N[C@H](C(=O)O)c4cc(O)cc(O)c4-c4cc3ccc4O)[C@H](O)c3ccc(c(Cl)c3)Oc3cc2cc(c3O[C@@H]2O[C@H](CO)[C@@H](O)[C@H](O)[C@H]2O[C@H]2C[C@](C)(N)[C@H](O)[C@H](C)O2)Oc2ccc(cc2Cl)[C@H]1O` [vancomycin], the “duration of treatment after which biofilm cells were still recoverable” value [1] is given as 7 days.

With Glucose oxidase the “concentration sufficient to observe antibacterial activity” value (E. coli [5]) was ≥ 3.75 mg/L, the “glucose oxidase level required” value (bacterial cells [2]; 0.5% glucose) was 2 units/ml and the “glucose oxidase level required” value (bacterial cells [2]; 1% glucose) was 1 units/ml. For the same compound, the “glucose oxidase level required” value (bacterial cells [2]; LB broth, 2% glucose, 120 mg/L KI, 320 units LP) was “at least 0.5 unit glucose oxidase/ml”.

In the case of `O=C([O-])[O-].O=C([O-])[O-].OO.OO.OO.[Na+].[Na+].[Na+].[Na+]` [sodium percarbonate solution, sodium percarbonate], the “greatest dilution of the hydrogen peroxide source inhibitory to E. coli” value (E. coli ATCC 25922; [9]) is reported as “no difference as regards inhibition” and the “greatest dilution of the hydrogen peroxide source inhibitory to E. coli” value (E. coli ATCC 25922; nutrient broth without supplemented KI and LP) is reported as “identical to that observed following direct H2O2 addition”.

With `NCC[C@H](O)C(=O)N[C@@H]1C[C@H](N)[C@@H](O[C@H]2O[C@H](CN)[C@@H](O)[C@H](O)[C@H]2O)[C@H](O)[C@H]1O[C@H]1O[C@H](CO)[C@@H](O)[C@H](N)[C@H]1O` [Amikacin] the “susceptibility of the strain” value (R468/2012 9027) was “R”, the “susceptibility of the strain” value (R479/2012 9028) was “R” and the “susceptibility of the strain” value (R480/2012 9029) was “R”. For the same compound, the “susceptibility of the strain” value (R550/2012 9026) was “R”.

In the case of `NC[C@H]1O[C@H](O[C@H]2[C@H](O)[C@@H](O[C@H]3O[C@H](CO)[C@@H](O)[C@H](N)[C@H]3O)[C@H](N)C[C@@H]2N)[C@H](N)C[C@@H]1O` [Tobramycin], the “susceptibility of the strain” value (R479/2012 9028) is reported as “R” and the “susceptibility of the strain” value (R550/2012 9026) is reported as “R”.

For `OO` [hydrogen peroxide], the “dilutions at which inhibition of the bacteria was noted” value (E. coli [7]) was “no inhibition”, the “effect of catalase on the inhibitory nature” value (bacterial cells [8]) was “completely reverse the inhibitory nature” and the “greatest dilution of the hydrogen peroxide source inhibitory to E. coli” value (E. coli ATCC 25922; [9]) was 1:32 dilution still not inhibitory.
